Legend:
[1] = test system: HTT; test: RT-qPCR splicing assay, HTT AJ/CJ mRNA; assay type: cell-based, human; details: Homo sapiens, 24 h, A673 or K562 cells; for IC50: decrease in canonical junction mRNA; for AC50: increase in alternative junction mRNA
Procedure, shortened: (§1)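 Cells: A673 (DMEM/10% FBS) or K562 (IMDM/10% FBS). Dosing: 11-pt 3-fold, top 10 uM final, DMSO ≤0.25%, 24 h, 37° C. Readout: one-step RT-qPCR on lysate, CJ vs AJ isoforms; ΔCt vs housekeeper, ΔΔCt vs DMSO, 2^(−ΔΔCt) RQ → % response.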

[2] = test system: HTT; test: Gene panel canonical junction qPCR assay, HTT CJ mRNA (Table 7); assay type: cell-based, human; details: Homo sapiens, read-out: HTT CJ mRNA decrease IC50
Procedure, shortened: (§2)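 A673/K562 cells + cpd → lysate → cDNA → qPCR, CY5 5′ nuclease probe set overlapping canonical junction. Normalized to GAPDH/GUSB/PPIA and DMSO via ΔΔCt, RQ → % response over fixed ΔCt window. IC50 = 50% CJ decrease, 4PL fit.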

[3] = test system: SMN2; test: Gene panel canonical junction qPCR assay, SMN2 CJ mRNA (Table 7); assay type: cell-based; details: Homo sapiens, read-out: SMN2 CJ mRNA decrease IC50
Procedure, shortened: as §2

[4] = test system: MYB; test: RT-qPCR splicing assay, MYB AJ/CJ mRNA; assay type: cell-based; details: Homo sapiens, A673 or K562 cells, 24 hours; for IC50: decrease in canonical junction mRNA; for AC50: increase in alternative junction mRNA
Procedure, shortened: as §1

[5] = test system: Target C; test: Gene panel canonical junction qPCR assay, Target C CJ mRNA (Table 7); assay type: cell-based, human; details: Homo sapiens, read-out: Target C CJ mRNA decrease IC50
Procedure, shortened: as §2

[6] = test system: MYB; test: Gene panel canonical junction qPCR assay, MYB CJ mRNA (Table 7); assay type: cell-based; details: Homo sapiens, read-out: MYB CJ mRNA decrease IC50
Procedure, shortened: as §2

| Compound | IC50 [1] [nM] | AC50 [1] [nM] | IC50 [2] [nM] | IC50 [3] [nM] | IC50 [4] [nM] | AC50 [4] [nM] | IC50 [5] [nM] | IC50 [6] [nM] |
| --- | --- | --- | --- | --- | --- | --- | --- | --- |
| FC1(F)CC2CC(Nc3ccc4c(n3)OCc3cc(-n5nccn5)ccc3-4)CC1N2 (centres unmarked) [Compound 238, 6,6-difluoro-N-[8-(1,2,3-triazol-2-yl)-6H-isochromeno[3,4-b]pyridin-3-yl]-8-azabicyclo[3.2.1]octan-3-amine] | 100 to 1000 | 1000 to 10000 | 100 to 1000 | 1000 to 10000 | 1000 to 10000 | 1000 to 10000 | 1000 to 10000 | 1000 to 10000 |
| CN(c1ccc2c(n1)OCc1cc(-n3nccn3)ccc1-2)C1CC2CC(F)(F)C(C1)N2 (centres unmarked) [Compound 239, 6,6-difluoro-N-methyl-N-[8-(1,2,3-triazol-2-yl)-6H-isochromeno[3,4-b]pyridin-3-yl]-8-azabicyclo[3.2.1]octan-3-amine] | 100 to 1000 | 1000 to 10000 | 100 to 1000 | 100 to 1000 | 1000 to 10000 | 1000 to 10000 | 1000 to 10000 | 1000 to 10000 |
| COc1cc(-c2ccc3c(c2)COc2nc(NC4CC5CC(F)(F)C(C4)N5)ccc2-3)cnn1 (centres unmarked) [Compound 240, 6,6-difluoro-N-[8-(6-methoxypyridazin-4-yl)-6H-isochromeno[3,4-b]pyridin-3-yl]-8-azabicyclo[3.2.1]octan-3-amine] | < 100 | 100 to 1000 | < 100 | 100 to 1000 | 1000 to 10000 | 1000 to 10000 | 100 to 1000 | 1000 to 10000 |
| FC1(F)CC2CC(Nc3ccc4c(n3)OCc3cc(-c5cn[nH]c5)ccc3-4)CC1N2 (centres unmarked) [Compound 241, 6,6-difluoro-N-[8-(1H-pyrazol-4-yl)-6H-isochromeno[3,4-b]pyridin-3-yl]-8-azabicyclo[3.2.1]octan-3-amine] | 1000 to 10000 | 1000 to 10000 | 1000 to 10000 | 1000 to 10000 | 1000 to 10000 | 1000 to 10000 | 1000 to 10000 | 1000 to 10000 |
| COc1cc(-c2cc3c(cc2F)-c2ccc(N(C)[C@@H]4C[C@H]5CC[C@@H](C4)N5)nc2OC3)cnn1 [Compound 242] | < 100 | < 100 | < 100 | < 100 | 1000 to 10000 | < 100 | < 100 | 100 to 1000 |
| COc1cc(-c2cc3c(cc2F)-c2ccc(O[C@@H]4C[C@H]5CC[C@@H](C4)N5)nc2OC3)cnn1 [Compound 243] | < 100 | < 100 | < 100 | < 100 | 100 to 1000 | 100 to 1000 | 100 to 1000 | 100 to 1000 |
| COc1cc(-c2cc3c(cc2F)-c2ccc(OC4CC(C)(C)NC(C)(C)C4)nc2OC3)cnn1 [Compound 244] | 100 to 1000 | < 100 | 100 to 1000 | 100 to 1000 | 100 to 1000 | 100 to 1000 | 100 to 1000 | 100 to 1000 |
| COc1cc(-c2ccc3c(c2F)COc2nc(N(C)[C@@H]4C[C@H]5CC[C@@H](C4)N5)ccc2-3)cnn1 [Compound 245, N-((1R,3s,5S)-8-azabicyclo[3.2.1]octan-3-yl)-7-fluoro-8-(6-methoxypyridazin-4-yl)-N-methyl-6H-isoch-romeno[3,4-b]pyridin-3-amine] | < 100 | < 100 | < 100 | < 100 | < 100 | < 100 | < 100 | < 100 |
| COc1cc(-c2ccc3c(c2)COc2nc(N(C)[C@H]4C[C@H]5COC[C@@H](C4)N5)ccc2-3)cnn1 [Compound 246] | > 10000 | > 10000 | > 10000 | 1000 to 10000 | > 10000 | 1000 to 10000 | > 10000 | > 10000 |
| COc1cc(-c2ccc3c(c2)COc2nc(N(C)[C@H]4C[C@@H]5CC(F)(F)[C@H](C4)N5)ccc2-3)cnn1 [Compound 247, (1R,3S,5S)-6,6-difluoro-N-[8-(6-methoxypyridazin-4-yl)-6H-isochromeno[3,4-b]pyridin-3-yl]-N-methyl-8-azabicyclo[3.2.1]octan-3-amine] | < 100 | < 100 | < 100 | < 100 | 100 to 1000 | > 10000 | 100 to 1000 | 100 to 1000 |
| CN(c1ccc2c(n1)OCc1cc(-c3cn[nH]c3)ccc1-2)C1CC2CC(F)(F)C(C1)N2 (centres unmarked) [Compound 248, 6,6-difluoro-N-methyl-N-[8-(1H-pyrazol-4-yl)-6H-isochromeno[3,4-b]pyridin-3-yl]-8-azabicyclo[3.2.1]octan-3-amine] | 100 to 1000 | 100 to 1000 | 100 to 1000 | 100 to 1000 | 1000 to 10000 | 1000 to 10000 | 1000 to 10000 | 1000 to 10000 |
| c1cnn(-c2ccc3c(c2)COc2nc(N4CCC(NC5CC5)C4)ccc2-3)n1 (centres unmarked) [Compound 249, N-cyclopropyl-1-[8-(1,2,3-triazol-2-yl)-6H-isochromeno[3,4-b]pyridin-3-yl]pyrrolidin-3-amine] | 1000 to 10000 | 1000 to 10000 | 1000 to 10000 | 100 to 1000 | > 10000 | > 10000 | > 10000 | > 10000 |
| CC(C)(C)NC1CCN(c2ccc3c(n2)OCc2cc(-n4nccn4)ccc2-3)C1 (centres unmarked) [Compound 250, N-tert-butyl-1-[8-(1,2,3-triazol-2-yl)-6H-isochromeno[3,4-b]pyridin-3-yl]pyrrolidin-3-amine 2,2,2-trifluoroacetate] | 1000 to 10000 | 100 to 1000 | 1000 to 10000 | 100 to 1000 | 1000 to 10000 | 1000 to 10000 | 1000 to 10000 | 1000 to 10000 |
| COc1cc(-c2ccc3c(c2)COc2nc(N4CCC(NC(C)(C)C)C4)ccc2-3)cnn1 (centres unmarked) [Compound 251, N-tert-butyl-1-[8-(6-methoxypyridazin-4-yl)-6H-isochromeno[3,4-b]pyridin-3-yl]pyrrolidin-3-amine] | < 100 | < 100 | < 100 | < 100 | 100 to 1000 | 100 to 1000 | < 100 | 100 to 1000 |
| CC1(NC2CCN(c3ccc4c(n3)OCc3cc(-n5nccn5)ccc3-4)C2)CC1 (centres unmarked) [Compound 252, N-(1-methylcyclopropyl)-1-[8-(1,2,3-triazol-2-yl)-6H-isochromeno[3,4-b]pyridin-3-yl]pyrrolidin-3-amine] | 100 to 1000 | 1000 to 10000 | 100 to 1000 | 100 to 1000 | 1000 to 10000 | 1000 to 10000 | 1000 to 10000 | 1000 to 10000 |
| CC1(NC2CCN(c3ccc4c(n3)OCc3cc(-c5cn[nH]c5)ccc3-4)C2)CC1 (centres unmarked) [Compound 253, N-(1-methylcyclopropyl)-1-[8-(1H-pyrazol-4-yl)-6H-isochromeno[3,4-b]pyridin-3-yl]pyrrolidin-3-amine] | 100 to 1000 | < 100 | 100 to 1000 | < 100 | 100 to 1000 | 100 to 1000 | 100 to 1000 | 100 to 1000 |

Reference: patent publication US20240400584A1, “COMPOUNDS AND METHODS FOR MODULATING SPLICING” (REMIX THERAPEUTICS INC., priority 2021, published 2024)
